# Laboratory results taken from ChEMBL document CHEMBL5385867, “2-Phenoxy-3, 4'-bipyridine derivatives inhibit AURKB-dependent mitotic processes by disrupting its localization” (Eur J Med Chem, 2023).
# Active and inactive are the calls of the source. The rule behind the calls is not given here.
# Columns and labels:
# [1] = molecular target: Aurora kinase B (Homo sapiens) (UniProt Q96GD4); assay: Disruption of AURKB localization in human RPE-MYC transfected with GFP-H2B assessed as minimal effective concentration that induces mitotic arrest, polyploidy, cell death and cell number reduction by MIPS assay; type: cell-based
# [2] = molecular target: Aurora kinase B (Homo sapiens) (UniProt Q96GD4); assay: Inhibition of Aurora kinase B in human RPE-MYC cells transfected with BCL2 assessed as inhibition of histone H3 phosphorylation at Ser10 residue at MEC for polyploidy measured after 6 hrs by immunofluorescence staining based analysis; type: cell-based
# [3] = Dose normalized AUC (0 to 6 hrs) in BALB/c mouse at 50 mg/kg, po compound formulated in PEG300 and administered as single dose by LC-MS/MS analysis; type: ADME, organism-based; conditions: in vivo
# [4] = Cmax in BALB/c mouse at 50 mg/kg, po compound formulated in PEG300 and administered as single dose by LC-MS/MS analysis; type: ADME, organism-based; parameters: dose 50 mg/kg, route po; conditions: in vivo
# [5] = molecular target: Aurora kinase B (Homo sapiens) (UniProt Q96GD4); assay: Disruption of AURKB localization in human RPE-MYC cells transfected with BCL2 assessed as mislocalization of AURKB at the spindle zone in anaphase cells by immunofluorescence staining based analysis; type: cell-based
# [6] = molecular target: Aurora kinase B (Homo sapiens) (UniProt Q96GD4); assay: Disruption of AURKB localization in human RPE-MYC cells transfected with BCL2 assessed as loss of localization of PLK1 at the spindle-midzone by immunofluorescence staining based analysis; type: cell-based
# [7] = molecular target: Aurora kinase B (Homo sapiens) (UniProt Q96GD4); assay: Disruption of AURKB localization in human RPE-MYC cells transfected with BCL2 assessed as loss of localization of MKLP1 at the spindle-midzone by immunofluorescence staining based analysis; type: cell-based
# [8] = molecular target: Aurora kinase B (Homo sapiens) (UniProt Q96GD4); assay: Disruption of AURKB localization in human RPE-MYC cells transfected with BCL2 assessed as loss of localization of microtubules at the spindle-midzone by immunofluorescence staining based analysis; type: cell-based
# [9] = molecular target: Aurora kinase B (Homo sapiens) (UniProt Q96GD4); assay: Inhibition of Aurora kinase B in human RPE-MYC cells transfected with BCL2 assessed as inhibition of histone H3 phosphorylation at Ser10 residue by immunofluorescence staining based analysis; type: cell-based
# [10] = molecular target: T1, Aurora kinase A (Homo sapiens) (UniProt O14965); assay: Inhibition of Aurora kinase A in human RPE-MYC cells transfected with BCL2 assessed as inhibition of protein autophosphorylation at Thr288 residue by immunofluorescence staining based analysis; type: cell-based
# T1 sequence (whole entry): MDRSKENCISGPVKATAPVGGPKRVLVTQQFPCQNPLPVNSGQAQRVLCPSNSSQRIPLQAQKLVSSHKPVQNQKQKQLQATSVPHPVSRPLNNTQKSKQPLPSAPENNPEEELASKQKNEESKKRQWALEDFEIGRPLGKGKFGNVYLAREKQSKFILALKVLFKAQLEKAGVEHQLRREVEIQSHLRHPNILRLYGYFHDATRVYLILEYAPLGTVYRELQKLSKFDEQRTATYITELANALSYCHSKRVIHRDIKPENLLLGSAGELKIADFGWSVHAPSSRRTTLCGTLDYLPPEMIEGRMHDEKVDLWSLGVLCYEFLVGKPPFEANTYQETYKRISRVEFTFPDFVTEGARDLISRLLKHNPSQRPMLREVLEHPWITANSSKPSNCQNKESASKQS
# [11] = test system: Mus musculus; assay: Induction of mitotic arrest in BALB/c mouse xenografted with human NCI-H23 cells assessed as increase in mitotic index in tumor at 50 mg/kg, po bid for 7 days by immunohistochemical staining based analysis; type: functional, organism-based; conditions: time 7.0 day
# [12] = molecular target: Aurora kinase B (Homo sapiens) (UniProt Q96GD4); assay: Inhibition of Aurora kinase B in human RPE-MYC cells transfected with BCL2 assessed as inhibition of histone H3 phosphorylation at Ser10 residue at highest concentration measured after 6 hrs by immunofluorescence staining based analysis; type: cell-based
# [13] = molecular target: T1, Aurora kinase A (Homo sapiens); assay: Inhibition of Aurora kinase A (unknown origin)
# [14] = molecular target: Aurora kinase B (Homo sapiens) (UniProt Q96GD4); assay: Inhibition of Aurora kinase B (unknown origin)
# [15] = test system: Phosphatidylinositol 4,5-bisphosphate 3-kinase catalytic subunit alpha isoform (Homo sapiens), P42336 [E545K]; assay: Inhibition of PI3KCA E545K mutant (unknown origin)
# [16] = test system: NCI-H23; assay: Antitumor activity against human NCI-H23 cells xenografted in BALB/c mouse assessed as suppression of tumor growth at 50 mg/kg, po bid for 7 days; type: functional, organism-based; conditions: time 7.0 day
# [17] = test system: Mus musculus; assay: Induction of apoptosis in BALB/c mouse xenografted with human NCI-H23 cells assessed as increase in caspase-3 activation in tumor at 50 mg/kg, po bid for 7 days by immunohistochemical staining based analysis; type: functional, organism-based; conditions: time 7.0 day
# [18] = molecular target: Aurora kinase B (Homo sapiens) (UniProt Q96GD4); assay: Inhibition of Aurora kinase B in human RPE-MYC cells transfected with BCL2 assessed as inhibition of histone H3 phosphorylation at Ser10 residue at 40 nM measured after 6 hrs by immunofluorescence staining based analysis; type: cell-based
# [19] = molecular target: Aurora kinase B (Homo sapiens) (UniProt Q96GD4); assay: Disruption of AURKB localization in human RPE-MYC cells transfected with BCL2 assessed as mislocalization of AURKB at the spindle zone in anaphase cells at 40 nM measured after 6 hrs by immunofluorescence staining based analysis; type: cell-based
# [20] = molecular target: Aurora kinase B (Homo sapiens) (UniProt Q96GD4); assay: Disruption of AURKB localization in human RPE-MYC cells transfected with BCL2 assessed as localization of AURKB on kinetochore at 40 nM measured after 6 hrs by immunofluorescence staining based analysis; type: cell-based
# [21] = molecular target: Aurora kinase B (Homo sapiens) (UniProt Q96GD4); assay: Disruption of AURKB localization in human RPE-MYC cells transfected with BCL2 assessed as loss of localization of PLK1 at the spindle-midzone at 40 nM measured after 6 hrs by immunofluorescence staining based analysis; type: cell-based
# [22] = molecular target: Aurora kinase B (Homo sapiens) (UniProt Q96GD4); assay: Disruption of AURKB localization in human RPE-MYC cells transfected with BCL2 assessed as localization of PLK1 at mitotic centrosomes at 40 nM measured after 6 hrs by immunofluorescence staining based analysis; type: cell-based
# [23] = molecular target: Aurora kinase B (Homo sapiens) (UniProt Q96GD4); assay: Disruption of AURKB localization in human RPE-MYC cells transfected with BCL2 assessed as localization of PLK1 at spindle poles at 40 nM measured after 6 hrs by immunofluorescence staining based analysis; type: cell-based
# [24] = molecular target: Aurora kinase B (Homo sapiens) (UniProt Q96GD4); assay: Disruption of AURKB localization in human RPE-MYC cells transfected with BCL2 assessed as loss of localization of MKLP1 at the spindle-midzone at 40 nM measured after 6 hrs by immunofluorescence staining based analysis; type: cell-based
# [25] = molecular target: Aurora kinase B (Homo sapiens) (UniProt Q96GD4); assay: Disruption of AURKB localization in human RPE-MYC cells transfected with BCL2 assessed as loss of localization of microtubules at the spindle-midzone at 40 nM measured after 6 hrs by immunofluorescence staining based analysis; type: cell-based
# [26] = test system: NCI-H23; assay: Antitumor activity against human NCI-H23 cells xenografted in BALB/c mouse assessed as reduction in cellular density in tumor at 50 mg/kg, po bid for 7 days by Hematoxylin and Eosin staining based analysis; type: functional, organism-based; conditions: time 7.0 day
# [27] = molecular target: Epithelial discoidin domain-containing receptor 1 (Homo sapiens) (UniProt Q08345); assay: Inhibition of DDR1 (unknown origin)
# [28] = molecular target: Aurora kinase B (Homo sapiens) (UniProt Q96GD4); assay: Inhibition of Aurora kinase B in human RPE-MYC cells transfected with BCL2 assessed as inhibition of histone H3 phosphorylation at Ser10 residue at 200 nM measured after 6 hrs by immunofluorescence staining based analysis; type: cell-based
# Aurora kinase B (Homo sapiens), sequence (Q96GD4 whole entry): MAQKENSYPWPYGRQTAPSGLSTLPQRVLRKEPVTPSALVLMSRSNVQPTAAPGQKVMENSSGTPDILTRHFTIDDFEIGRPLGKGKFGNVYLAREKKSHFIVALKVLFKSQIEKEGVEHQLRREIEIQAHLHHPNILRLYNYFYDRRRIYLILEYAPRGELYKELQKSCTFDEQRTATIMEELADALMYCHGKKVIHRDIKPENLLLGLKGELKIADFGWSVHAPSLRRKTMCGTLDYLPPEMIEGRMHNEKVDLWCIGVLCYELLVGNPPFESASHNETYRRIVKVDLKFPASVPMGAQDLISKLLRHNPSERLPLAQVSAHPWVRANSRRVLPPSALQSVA
# Epithelial discoidin domain-containing receptor 1 (Homo sapiens), sequence (Q08345 whole entry, the tested form may be a part): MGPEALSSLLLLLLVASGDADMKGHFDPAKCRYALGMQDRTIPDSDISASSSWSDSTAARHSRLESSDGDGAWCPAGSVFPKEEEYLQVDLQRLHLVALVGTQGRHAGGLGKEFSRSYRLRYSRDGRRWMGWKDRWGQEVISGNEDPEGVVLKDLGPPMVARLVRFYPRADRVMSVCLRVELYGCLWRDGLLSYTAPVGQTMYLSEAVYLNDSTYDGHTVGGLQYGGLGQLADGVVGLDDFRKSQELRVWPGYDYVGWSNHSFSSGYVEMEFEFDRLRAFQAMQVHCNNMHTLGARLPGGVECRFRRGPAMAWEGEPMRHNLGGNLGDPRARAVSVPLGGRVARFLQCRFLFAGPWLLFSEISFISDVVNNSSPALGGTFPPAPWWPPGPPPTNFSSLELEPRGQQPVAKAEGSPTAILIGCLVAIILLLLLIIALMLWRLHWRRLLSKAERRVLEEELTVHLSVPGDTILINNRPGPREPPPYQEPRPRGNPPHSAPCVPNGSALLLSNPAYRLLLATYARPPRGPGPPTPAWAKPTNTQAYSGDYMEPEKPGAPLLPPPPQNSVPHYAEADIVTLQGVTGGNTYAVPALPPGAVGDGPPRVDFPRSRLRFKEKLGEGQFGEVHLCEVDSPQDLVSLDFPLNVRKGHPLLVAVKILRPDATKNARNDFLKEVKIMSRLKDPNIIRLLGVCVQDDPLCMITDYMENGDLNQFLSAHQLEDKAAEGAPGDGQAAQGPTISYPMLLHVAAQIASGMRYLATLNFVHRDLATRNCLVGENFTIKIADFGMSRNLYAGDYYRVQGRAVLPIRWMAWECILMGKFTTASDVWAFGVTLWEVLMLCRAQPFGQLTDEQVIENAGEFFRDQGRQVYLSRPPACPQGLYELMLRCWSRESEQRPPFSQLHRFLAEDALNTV
# Phosphatidylinositol 4,5-bisphosphate 3-kinase catalytic subunit alpha isoform (Homo sapiens), P42336 [E545K], sequence (P42336 whole entry E545K, canonical isoform): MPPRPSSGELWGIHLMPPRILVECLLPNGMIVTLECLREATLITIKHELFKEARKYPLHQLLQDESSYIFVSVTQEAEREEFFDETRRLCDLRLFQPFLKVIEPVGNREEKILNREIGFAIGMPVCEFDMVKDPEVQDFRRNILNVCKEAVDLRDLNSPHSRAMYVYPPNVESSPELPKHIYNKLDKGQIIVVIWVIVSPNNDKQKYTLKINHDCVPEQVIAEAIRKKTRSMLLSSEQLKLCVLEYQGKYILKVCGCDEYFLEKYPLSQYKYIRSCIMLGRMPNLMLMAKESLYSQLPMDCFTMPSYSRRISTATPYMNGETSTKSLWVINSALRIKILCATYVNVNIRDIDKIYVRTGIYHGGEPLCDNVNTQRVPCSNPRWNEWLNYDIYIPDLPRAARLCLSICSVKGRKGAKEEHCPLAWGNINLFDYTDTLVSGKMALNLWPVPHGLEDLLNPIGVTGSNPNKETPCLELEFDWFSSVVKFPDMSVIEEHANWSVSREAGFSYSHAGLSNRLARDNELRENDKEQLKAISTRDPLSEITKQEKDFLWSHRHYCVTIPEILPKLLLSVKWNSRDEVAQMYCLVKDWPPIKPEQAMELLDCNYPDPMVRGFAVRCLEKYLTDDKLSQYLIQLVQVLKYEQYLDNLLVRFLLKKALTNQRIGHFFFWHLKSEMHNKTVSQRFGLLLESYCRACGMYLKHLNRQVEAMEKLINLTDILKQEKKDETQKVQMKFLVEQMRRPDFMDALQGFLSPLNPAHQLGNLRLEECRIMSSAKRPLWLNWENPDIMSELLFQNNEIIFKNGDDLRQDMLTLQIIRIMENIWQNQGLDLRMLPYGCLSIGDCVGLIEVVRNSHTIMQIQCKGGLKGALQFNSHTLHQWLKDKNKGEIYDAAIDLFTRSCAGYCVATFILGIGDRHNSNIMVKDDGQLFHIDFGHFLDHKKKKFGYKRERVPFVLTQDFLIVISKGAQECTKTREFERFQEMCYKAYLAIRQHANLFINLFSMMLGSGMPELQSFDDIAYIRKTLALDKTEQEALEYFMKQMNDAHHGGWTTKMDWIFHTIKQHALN
compound,measurement,setting,value
CNC(=O)c1cc(Oc2ncccc2-c2ccncc2)cc(OC(F)(F)F)c1,MEC,[1],0.16 µM
COc1cccc(Oc2ncccc2-c2ccnc(N)n2)c1,MEC,[1],1.5 µM
COC(=O)c1cccc(Oc2ncccc2-c2ccnc(N)n2)c1,MEC,[1],0.85 µM
CNC(=O)c1cc(Oc2ncccc2-c2ccnc(C)c2)cc(OC(F)(F)F)c1,MEC,[1],0.12 µM
same,inhibition,[2],inactive
same,AUC/dose,[3],0.72 µM·h/mg/kg
same,Cmax,[4],14.4 µM
same,Activity,[5],Active
same,Activity,[6],Active
same,Activity,[7],Active
same,Activity,[8],Active
COC(=O)c1cc(OC)cc(Oc2ncccc2-c2ccnc(N)n2)c1,MEC,[1],0.03 µM
COc1cc(OC)cc(Oc2ncccc2-c2ccnc(N)c2)c1,MEC,[1],0.28 µM
COc1cc(OC)cc(Oc2ncccc2-c2ccnc(OC)c2)c1,MEC,[1],0.07 µM
same,inhibition,[9],inactive
same,inhibition,[10],inactive
CNC(=O)c1cc(Oc2ncccc2-c2ccnc(OC)c2)cc(OC(F)(F)F)c1,Activity,[11],Active
same,MEC,[1],0.02 µM
same,inhibition,[2],Active
same,inhibition,[12],< 68%
same,inhibition,[13],inactive
same,inhibition,[14],inactive
same,inhibition,[15],Active
same,Activity,[16],Active
same,Activity,[17],Active
same,inhibition,[18],Active
same,Activity,[19],Active
same,Activity,[20],inactive
same,AUC/dose,[3],0.35 µM·h/mg/kg
same,Cmax,[4],6.9 µM
same,Activity,[21],Active
same,Activity,[22],inactive
same,Activity,[23],inactive
same,Activity,[24],Active
same,Activity,[25],Active
same,Activity,[26],Active
COc1cc(NC(C)=O)cc(Oc2ncccc2-c2ccncc2)c1,MEC,[1],0.11 µM
same,inhibition,[2],inactive
same,inhibition,[27],Active
same,Activity,[5],Active
same,Activity,[6],Active
same,Activity,[7],Active
same,Activity,[8],Active
COC(=O)c1cc(OC)cc(Oc2ncccc2-c2ccncc2)c1,MEC,[1],0.02 µM
COc1cc(OC)cc(Oc2ncccc2-c2ccnc(C)c2)c1,MEC,[1],0.08 µM
same,inhibition,[9],inactive
same,inhibition,[10],inactive
COc1cc(OC)cc(Oc2ncccc2-c2ccnc(C)n2)c1,MEC,[1],1.29 µM
CNC(=O)c1cc(OC)cc(Oc2ncccc2-c2ccncc2)c1,MEC,[1],0.47 µM
Nc1cccc(Oc2ncccc2-c2ccnc(N)n2)c1,MEC,[1],20 µM
CNC(=O)c1cc(OC)cc(Oc2ncccc2-c2ccnc(OC)c2)c1,MEC,[1],0.03 µM
same,inhibition,[2],inactive
same,Activity,[5],Active
same,Activity,[6],Active
same,Activity,[7],Active
same,Activity,[8],Active
COc1cc(Oc2ncccc2-c2ccncc2)cc(C(=O)N(C)C)c1,MEC,[1],2.08 µM
Nc1ccc(Oc2ncccc2-c2ccnc(N)n2)cc1,MEC,[1],5 µM
COc1cc(NC(C)=O)cc(Oc2ncccc2-c2ccnc(C)c2)c1,MEC,[1],0.07 µM
same,inhibition,[2],inactive
same,Activity,[5],Active
same,Activity,[6],Active
same,Activity,[7],Active
same,Activity,[8],Active
Nc1nccc(-c2cccnc2Oc2ccccc2)n1,MEC,[1],> 20 µM
COc1cc(OC)cc(Oc2ncccc2-c2ccccc2)c1,MEC,[1],2.08 µM
COc1cc(OC)cc(Oc2ncccc2-c2ccncn2)c1,MEC,[1],0.75 µM
COc1cc(OC)cc(Oc2ncccc2-c2ccnc(N)n2)c1,MEC,[1],0.37 µM
COc1cc(OC)cc(Oc2ncccc2-c2cccnc2)c1,MEC,[1],0.91 µM
CNC(=O)c1cc(OC)cc(Oc2ncccc2-c2ccnc(C)c2)c1,MEC,[1],0.12 µM
CCN(CCCOc1ccc2c(Nc3cc(CC(=O)Nc4cccc(F)c4)[nH]n3)ncnc2c1)CCOP(=O)(O)O,inhibition,[28],100%
COc1cc(Oc2ncccc2-c2ccncc2)cc(-c2nc(C)no2)c1,MEC,[1],0.42 µM
COc1cc(NC(C)=O)cc(Oc2ncccc2-c2ccnc(OC)c2)c1,MEC,[1],0.03 µM
same,inhibition,[2],Active
same,inhibition,[12],< 68%
same,Activity,[5],Active
same,Activity,[6],Active
same,Activity,[7],Active
same,Activity,[8],Active
COc1cc(OC)cc(Oc2ncccc2-c2cccc(N)n2)c1,MEC,[1],0.96 µM
COc1cc(OC)cc(Oc2ncccc2-c2ccncc2)c1,MEC,[1],0.14 µM
COC(=O)c1ccc(Oc2ncccc2-c2ccnc(N)n2)cc1,MEC,[1],> 20 µM
COc1ccc(Oc2ncccc2-c2ccnc(N)n2)cc1,MEC,[1],> 20 µM
